The test system of the assay is TGFβ signal. In words: TGFβ signal inhibitory activity, (SBE)4-Luc reporter in A549 cells (Test Examples 1A and 1B). The settings on record: Homo sapiens. It is filed as cell-based, human. As to the method: Test Example 1A: TGFβ signal inhibitory activity (in vitro test) The compounds according to the present invention was evaluated for TGFβ signal inhibitory activity according to the method described in J. Boil .Chem., 273, 21145-21152 (1998). Specifically, a plasmid having four tandem binding sequences of Smad3, a TGF-beta signal transducer, to the upstream of a luciferases gene were used as a reporter plasmid ((SBE)4-Luc) to detect TGF-beta signal, This reporter gene was introduced into human pulmonary carcinoma epithelial cells (A549) (available from ATCC) to establish a stable cell line. A test compound and TGFβ-1 (2 ng/ ml) were added to the cells, and the mixture was cultured for 4 hr. In this case, the compounds according to the present invention synthesized in the Examples were used as the test compound. After the culture, the luciferase activity of the cells were measured by chemiluminescence (Steady Glo (trademark) luciferase assay system, available from Promega). Likewise, the luciferase activity was measured as a control against the culture of cells with the addition of TGFβ only and the culture of cells without the addition of both TGFβ and the test compound.
The TGFβ inhibition (%) was calculated by the following equation, based on the measurement results. TGFβ inhibition(%) = (A-B)/(A-C) × 100 [formula] wherein • A: luciferase activity with the addition of TGFβ1 and without the addition of test compound (relative luciferase unit), • B: luciferase activity with the addition of both TGFβ1 and test compound (relative luciferase unit), and • C: luciferase activity without the addition of both TGFβ1 and test compound (relative luciferase unit).
The test was carried out for each of test compound at the concentrations of 3 µM and 10 µM. For certain test compounds, the test was further carried out for test compound at the concentration of 1 µM.
For the compounds of Reference Examples, the TGFβ signal inhibitory activity was evaluated in the same manner as in Test Example 1A.

Where [1] appears, read: A549, test compound 3 µM, TGFβ-1 2 ng/ml, 4 hr, Table 1A, read-out: TGFβ inhibition rate, %.
The mark [2] stands for this setting: A549, test compound 10 µM, TGFβ-1 2 ng/ml, 4 hr, Table 1A, read-out: TGFβ inhibition rate, %.
Setting [3] is: A549, test compound 3 µM, Reference Examples, Table 1B, read-out: TGFβ inhibition rate, %.
Where [4] appears, read: A549, test compound 10 µM, Reference Examples, Table 1B, read-out: TGFβ inhibition rate, %.
[5] abbreviates: A549, 3 µM, compounds of Reference Examples (Test Example 1B), read-out: TGFβ inhibition rate, %.
Setting [6] is: A549, 10 µM, compounds of Reference Examples (Test Example 1B), read-out: TGFβ inhibition rate, %.

We go through 32 molecules from patent EP1724268A1, “COMPOUND HAVING TGF-BETA INHIBITORY ACTIVITY AND PHARMACEUTICAL COMPOSITION CONTAINING SAME” (KIRIN BEER KABUSHIKI KAISHA, priority 2004, dated 2005).

Where two headings read alike, the source gives them in different places.

`Cc1cc(Oc2ccnc3ccc(-c4csc5ccccc45)cc23)c(-c2ccccn2)nc1C` [Compound 164, 3-(6-Benzo[b]thiophen-3-yl-quinolin-4-yloxy)-5,6-dimethyl-[2,2']bipyridine]: under setting [1], the inhibition (in general, how much of the control response was suppressed) at 3 µM worked out at 75%. The inhibition at 10 µM under setting [2] stood at 100%. As to `CCOC(=O)c1c(C)cccc1Oc1ccnc2cc(OC)c(OC)cc12` [Compound r92], the inhibition at 3 µM under setting [3] was 25%. In addition, the inhibition at 10 µM under setting [4] was found to be 82%. Consider `COc1cc2c(Oc3ccc(C)cc3C(=O)c3ccccc3)ccnc2cc1OCCCCn1ccnc1` [Compound r150], for which the inhibition at 3 µM under setting [3] turned out to be 97%. The inhibition at 10 µM under setting [4] was 100%. Consider `Cc1ccc(-c2nc(C)c(C)cc2Oc2ccnc3cc(C(F)(F)F)ccc23)nc1` [r433], for which the inhibition at 3 µM under setting [5] amounted to 91%. Further, the inhibition at 10 µM under setting [6] came to 100%. With `COc1ccc2nccc(Oc3cc4cccnc4nc3-c3ccccc3)c2n1` [Compound 128, 2-Methoxy-8-(2-phenyl-[1,8]naphthyridin-3-yloxy)-[1,5]naphthyridine], the inhibition at 3 µM under setting [1] amounted to 93%. The inhibition at 10 µM under setting [2] was 100%.

For `Cc1cc(Oc2ccnc3cc(-c4ccccc4N)ccc23)c(-c2ccccn2)nc1C` [Compound 108, 2-[4-(5,6-Dimethyl-[2,2']bipyridinyl-3-yloxy)-quinolin-7-yl]-phenylamine], the inhibition at 3 µM under setting [1] turned out to be 96%. The inhibition at 10 µM under setting [2] is 100%.

`COc1cc2nccc(Oc3cc(C)c(C)nc3-c3ccccn3)c2cc1OC` [Compound r269]: under “A549, 1 µM, compounds of Reference Examples (Test Example 1B), read-out: TGFβ inhibition rate, %”, the inhibition at 1 µM worked out at 97%. With `COc1cc2c(Oc3cc4ccccc4nc3C(C)=O)ccnc2cc1O` [Compound r390], under setting [5], the inhibition at 3 µM was 16%. Further, the inhibition at 10 µM under setting [6] came out at 64%. Consider `Cc1ccc(Oc2ccnc3ccc(OCCCN4CCN(c5ccccn5)CC4)cc23)c(-c2ncccn2)n1` [Compound 218, 4-(6-Methyl-2-pyrimidin-2-yl-pyridin-3-yloxy)-6-[3-(4-pyridin-2-yl-piperazin-1-yl)-propoxy]-quinoline], for which, under setting [1], the inhibition at 3 µM came to 84%. The inhibition at 10 µM under setting [2] came to 100%. On to `COc1cc2c(Oc3cc4cccnc4nc3-c3ccccc3)ccnc2cc1F` [Compound 60, 3-(7-Fluoro-6-methoxy-quinolin-4-yloxy)-2-phenyl-[1,8]naphthyridine], for which the inhibition at 3 µM under setting [1] is 76%. Besides, the inhibition at 10 µM under setting [2] was 100%. In the case of `COc1cc2c(Oc3cc4ccccc4nc3C)ccnc2cc1OC(CO)CO` [Compound r374], the inhibition at 3 µM under setting [5] amounted to 26%. Besides, the inhibition at 10 µM under setting [6] amounted to 79%. Consider `COc1cc2nccc(Oc3ccc4c(c3)C(=O)c3ccccc3-4)c2cc1OC` [Compound r19], for which the inhibition at 3 µM under setting [3] was 73%. Besides, the inhibition at 10 µM under setting [4] stood at 95%.

Consider `CCC(O)c1cc(C)ccc1Oc1ccnc2cc(OC)c(OC)cc12` (stereo not shown) [Compound r9, 1-{2-[(6,7-Dimethoxy-4-quinolyl)oxy]-5-methylphenyl}-1-propanol], for which, under setting [3], the inhibition at 3 µM is 29%. Moreover, the inhibition at 10 µM under setting [4] came to 77%. Regarding `Cc1cc(Oc2ccnc3ccc(OCc4ccccc4)cc23)c(-c2ccccn2)nc1C` [Compound 136, 3-(6-Benzyloxy-quinolin-4-yloxy)-5,6-dimethyl-[2,2']bipyridine], the inhibition at 3 µM under setting [1] amounted to 93%. Further, the inhibition at 10 µM under setting [2] stood at 100%.

Regarding `COc1ccc(Oc2ccnc3cc(OC)c(OC)cc23)cn1` [Compound r207, 6,7-Dimethoxy-4-(6-methoxy-pyridin-3-yloxy)-quinoline], the inhibition at 3 µM under setting [5] turned out to be 77%. The inhibition at 10 µM under setting [6] is 99%. With `CCc1ccc(Oc2ccnc3ccc(OCc4ccccc4)cc23)c(-c2ncccn2)n1` [Compound 190, 6-Benzyloxy-4-(6-ethyl-2-pyrimidin-2-yl-pyridin-3-yloxy)-quinoline], the inhibition at 3 µM under setting [1] came to 100%. In addition, under setting [2], the inhibition at 10 µM came out at 100%.

Take `Cc1cc(Oc2ccnc3cc(-c4ccccn4)ccc23)c(-c2ccccn2)nc1C` [Compound 176, 5,6-Dimethyl-3-(7-pyridin-2-yl-quinolin-4-yloxy)-[2,2']bipyridine]: under setting [1], the inhibition at 3 µM worked out at 99%. Under setting [2], the inhibition at 10 µM is 100%. With `COc1cc2nccc(Oc3cc4cccnc4cc3-c3ccccc3)c2cc1OC` [Compound r299, 6,7-Dimethoxy-4-(7-phenyl-quinolin-6-yloxy)-quinoline], the inhibition at 3 µM under setting [5] stood at 99%. Also, the inhibition at 10 µM under setting [6] turned out to be 100%. On to `c1ccc(-c2nc3ncccc3cc2Oc2ccnc3ccccc23)cc1` [Compound 52, 2-Phenyl-3-(quinolin-4-yloxy)-[1,8]naphthyridine], for which the inhibition at 3 µM under setting [1] worked out at 96%. Also, under setting [2], the inhibition at 10 µM is 100%. For the molecule `COc1cc2nccc(Oc3cc4ccccc4cc3O)c2cc1OC` [r425], the inhibition at 3 µM under setting [5] was determined as 72%. For the same molecule, the inhibition at 10 µM under setting [6] was determined as 100%. With `COc1cc2c(Oc3cc(C)c(C)nc3-c3cccc(C)n3)ccnc2cc1OCC1CO1` (stereo not shown) [Compound r446], the inhibition at 3 µM under setting [5] is 35%. In addition, the inhibition at 10 µM under setting [6] turned out to be 89%. For the molecule `COc1cc2nccc(Oc3cc4cnccc4nc3-c3ccccc3)c2cc1OC` [Compound 93, 3-(6,7-Dimethoxy-quinolin-4-yloxy)-2-phenyl-[1,6]naphthyridine], under setting [1], the inhibition at 3 µM was found to be 97%. In addition, under setting [2], the inhibition at 10 µM came to 100%.

`Cc1cc(Oc2ccnc3cc(-c4csc5ccccc45)ccc23)c(-c2ccccn2)nc1C` [Compound 172, 3-(7-Benzo[b]thiophen-3-yl-quinolin-4-yloxy)-5,6-dimethyl-[2,2']bipyridine]: the inhibition at 3 µM under setting [1] was 49%. The inhibition at 10 µM under setting [2] was 90%.

As for `Clc1ccc2nccc(Oc3cc4cccnc4nc3-c3ccccc3)c2c1Cl` [Compound 57, 3-(5,6-Dichloro-quinolin-4-yloxy)-2-phenyl-[1,8]naphthyridine], under setting [1], the inhibition at 3 µM turned out to be 75%. Further, under setting [2], the inhibition at 10 µM is 100%. Taken in the same sequence, the figures for `Cc1cc(Oc2ncnc3ccc(Cl)cc23)c(-c2ccccn2)nc1C` [Compound 24, 6-Chloro-4-(5,6-dimethyl-[2,2']bipyridin-3-yloxy)-quinazoline] were 90% and 99%. Take `COc1cc2nccc(Oc3ccc(Cl)cc3C(=O)c3ccccc3)c2cc1OC` [Compound r69]: the inhibition at 3 µM (A549, read-out: TGFβ inhibition rate, %) was 100%. For the molecule `COc1cc2nccc(Oc3cc4cnccc4nc3C)c2cc1OC` [r311], under setting [5], the inhibition at 3 µM is 53%. Besides, the inhibition at 10 µM under setting [6] came out at 90%. With `COc1cc2c(Oc3cc(C)c(C)nc3-c3ccc(C)cn3)ccnc2cc1OCCO` [Compound r459], the inhibition at 3 µM under setting [5] came out at 98%.

For the molecule `COc1cc2c(Oc3cc4cnccc4nc3C)ccnc2cc1OCCO` [Compound r407], the inhibition at 3 µM under setting [5] was determined as 71%. Further, the inhibition at 10 µM under setting [6] stood at 97%. Take `COc1cc2c(Oc3cc(C)c(C)cc3C(C)=O)ccnc2cc1OCCCl` [Compound r315]: under setting [5], the inhibition at 3 µM worked out at 98%. For the same molecule, the inhibition at 10 µM under setting [6] is 100%. Taken in the same sequence, the figures for `COc1cc2nccc(Oc3ccc(C)nc3-c3ccc(N(C)C)cc3)c2cc1OC` [Compound r247] were 93% and 100%. In the same order, the values of `CCCOc1ccc(Oc2ccnc3cc(OC)c(OC)cc23)c(C(C)=O)c1` [Compound r179] are 18% and 68%.
